3 molecules from patent publication US8043827B2, “Single molecule-format real-time bioluminescence imaging probe” (National Institute of Advanced Industrial Science and …, priority 2007, dated 2011) can be followed below.

Holding throughout (format): cell-based
The subject of test [1] is ATP receptor which is an endogenous membrane receptor of COS-7 cells. Nature of the test: ATP concentration-dependent luminescence change in COS-7 cells carrying pSica-5. Here is the method: For example, an ATP receptor which is an endogenous membrane receptor of COS-7 cells, is stimulated by 100 mM ATP, to thereby increase the concentration of Ca^2+. CaM in the probe responds to the elevated Ca^2+ Level, and as a result, the luminescence intensity is reduced. This phenomenon depends on the ATP concentration;
pSica-5 was transfected into COS-7 cells which have been cultured on a 24-well plate, using a transfection reagent (TransIT-LT1 (Mirus)). Then, the cells were cultured for 16 hours, and then the culture medium was exchanged with 200 μL of a mixed solution of a HBSS buffer (containing 1.3 mM Ca^2+) and the substrate. The values of luminescence change obtained thereafter were monitored by a luminescent plate reader (FIG. 5). After about 5 minutes, ATP was added at different concentrations, and changes in the luminescence values obtained thereafter were monitored. […] Meanwhile, no detectable change was recognized in the luminescence values for the buffer solution itself (phosphate buffer saline; PBS).

For test [2], the system named is ATP receptors present on the cell membrane of MCF-7 cells. As to the kind of experiment: Intracellular Ca^2+ level increased by ATP stimulation, MCF-7 cells transfected with pSica-5. The settings on record: 1 mM ATP; host cell MCF-7 transfected with pSica-5. Here is the method: (§1) pSica-5 was transfected into COS-7 cells or HeLa cells which have been cultured on a 24-well plate, using a transfection reagent (TransIT-LT1 (Mirus)). Then, the cells were cultured for 16 hours, and then the cell culture medium was exchanged with 200 μL of a PBS buffer solution supplemented with coeleterazine, which is the specific substrate, and 2 μM ionomycin. The values of luminescence change obtained thereafter were monitored by a luminescent plate reader (Mithras LB940; Berthold) (FIG. 7(A)). Four minutes after stabilization of the background luminescence, Ca^2+ was added to the cells on the wells at concentrations ranging from 10^−3.5 M to 10^−5.5 M. Thereafter, the changes in the luminescence values were immediately monitored by the above-mentioned luminescence plate reader. Changes in the luminescence values, which were dependent on the concentration of added Ca^2+, were monitored. Based on the values of luminescence fluctuations in this Ca^2+ concentration range, three kinds of calibration curves were produced with respect to the Ca^2+ concentration in the cultured cells. Variances in the luminescence intensity induced by the ATP concentration in COS-7, MCF-7 and HeLa cells, which had been respectively transfected with pSica-5, were measured (FIG. 7(B)). […]

Test [3] has as its system ATP receptors present on the cell membrane of COS-7 cells. As to the kind of experiment: Intracellular Ca^2+ level increased by ATP stimulation, COS-7 cells transfected with pSica-5. The settings on record: 1 mM ATP; host cell COS-7 transfected with pSica-5. As to the method:
as §1

Test [4] addresses T1, GR LBD (human glucocorticoid receptor) (Homo sapiens, UniProt P04150).
T1 construct: expressed in transfected cells
T1 sequence (P04150 524-758 limits assumed): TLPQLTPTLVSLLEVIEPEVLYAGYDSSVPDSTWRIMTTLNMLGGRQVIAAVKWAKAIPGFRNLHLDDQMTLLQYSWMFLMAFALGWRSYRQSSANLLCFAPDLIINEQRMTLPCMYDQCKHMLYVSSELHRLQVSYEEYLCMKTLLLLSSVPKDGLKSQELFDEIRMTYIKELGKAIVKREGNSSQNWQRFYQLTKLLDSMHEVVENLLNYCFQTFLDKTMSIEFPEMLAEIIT
Nature of the test: Ligand sensitivity of living cells transfected with pSimgr. The settings on record: steroid hormone sensitivity (FIG. 9(C)). From the text:
These plasmids were designated as pSimar and pSimgr, respectively.

The next test addresses T2, calmodulin (CaM) (Xenopus laevis, UniProt P0DP33).
T2 construct: (CaM; 1-150 AA; GenBank/NM001087395); expressed in transfected cells; host or cells: COS-7 or HeLa cells, pSica-5 in pcDNA3.1(+)
As to the kind of experiment: Ca^2+ concentration-dependent luminescence intensity in living cells transfected with pSica-5. The settings on record: for EC50: 2 μM ionomycin, PBS, read-out: 50% effective concentration (EC50) based on changes in luminescence intensities. Here is the method:
PCR amplification was carried out to introduce KpnI and BamHI, which are restriction enzyme sites, into the two termini of a cDNA encoding calmodulin, which is a Xenopus laevis (African clawed frog)-derived Ca^2+ recognition protein (CaM; 1-150 AA; GenBank/NM001087395). On the other hand, as an optimal luminescent enzyme which can be linked to the CaM as a single-molecule-format probe, Gaussia princeps-derived luciferase (GLuc; 1-189 AA; GenBank/AY015993) was used. Five fragment pairs were generated by fragmentizing five sites of the cDNA of GLuc by PCR reaction, and were used in the examination of the optimal partition sites for GLuc (FIG. 3), which will be discussed in Example 2.
pSica-5 was transfected into COS-7 cells or HeLa cells which have been cultured on a 24-well plate, using a transfection reagent (TransIT-LT1 (Mirus)). Then, the cells were cultured for 16 hours, and then the cell culture medium was exchanged with 200 μL of a PBS buffer solution supplemented with coeleterazine, which is the specific substrate, and 2 μM ionomycin. The values of luminescence change obtained thereafter were monitored by a luminescent plate reader (Mithras LB940; Berthold) (FIG. 7(A)). Four minutes after stabilization of the background luminescence, Ca^2+ was added to the cells on the wells at concentrations ranging from 10^−3.5 M to 10^−5.5 M. Thereafter, the changes in the luminescence values were immediately monitored by the above-mentioned luminescence plate reader. Changes in the luminescence values, which were dependent on the concentration of added Ca^2+, were monitored. Based on the values of luminescence fluctuations in this Ca^2+ concentration range, three kinds of calibration curves were produced with respect to the Ca^2+ concentration in the cultured cells.

Where two headings read alike, the source gives them in different places.

`Nc1ncnc2c1ncn2[C@@H]1O[C@H](COP(=O)(O)OP(=O)(O)OP(=O)(O)O)[C@@H](O)[C@H]1O` [ATP]: the “changes in the luminescence values” in test [1] (COS-7 cells with pSica-5, 1 mM, 100 μM and 10 μM ATP, HBSS buffer containing 1.3 mM Ca^2+) is recorded as “stimulant dose-dependent changes”. Also, the luminescence intensity result in test [1] (COS-7 cells, probe with GLuc dissected at site #5, 100 mM ATP (FIG. 5 legend)) is “reduced”. Moreover, the “Measured average of Ca^2+ concentrations (ave)” value in test [2] was determined as 13 µM; in test [3] it was 37.4 µM.

For the molecule `C[C@]12CCC(=O)C=C1CC[C@@H]1[C@@H]2[C@@H](O)C[C@@]2(C)[C@H]1CC[C@]2(O)C(=O)CO` [cortisol], in test [4], the “sensitivity of cells transfected with pSimgr” value is recorded as “strong sensitivity”.

As for `[Ca+2]` [Ca^2+], the EC50 turned out to be 25 µM at calmodulin (CaM) (COS-7 cells transfected with pSica-5) and 50 µM at calmodulin (CaM) (HeLa cells transfected with pSica-5). Further, at calmodulin (CaM) (HeLa cells, from the luminescence values), the “dissociation coefficient (Kd) between CaM and Ca^2+” value is given as 0.63×10^−17 M^4.
